Assay results reported in the supplement of paper PMC10307832.

Assays:
Assay in all cases: relative viability (nuclei count vs DMSO), 5 days (fraction); higher = more cells survive
[1] = compound: CC1=CC(=CC=C1)NC2=NC(=CS2)C3=CC=NC=C3 + Cc1cc(Nc2cc(N3CCN(C)CC3)nc(Sc3ccc(NC(=O)C4CC4)cc3)n2)n[nH]1 [Tozasertib] (partner 0.1 µM)
In short: (§1)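 Lung cancer cell lines were pin-tool dosed in 1536-well plates on the day after seeding, with either a lone drug or a fixed anchor-drug dose plus five library-drug doses (not always all listed) in √10 steps. Nuclei were counted on 4× images after 5 days. Relative viability is the ratio of treated-well to vehicle-well nuclei counts, with each value a median of duplicate plates.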

[2] = compound: Cc1ccc(NC(=O)c2ccc(CN3CCN(C)CC3)cc2)cc1Nc1nc(-c2cccnc2)cs1 [Masitinib] + C[C@]1(O)C[C@@H](c2nc(-c3ccc4ccc(-c5ccccc5)nc4c3)c3c(N)nccn32)C1 [Linsitinib] (partner 1 µM)
In short: as §1

[3] = compound: Cc1ccc(NC(=O)c2ccc(CN3CCN(C)CC3)cc2)cc1Nc1nc(-c2cccnc2)cs1 [Masitinib] + CC(=O)c1c(C)c2cnc(Nc3ccc(N4CCNCC4)cn3)nc2n(C2CCCC2)c1=O [Palbociclib] (partner 0.5 µM)
In short: as §1

[4] = compound: Cc1ccc(NC(=O)c2ccc(CN3CCN(C)CC3)cc2)cc1Nc1nc(-c2cccnc2)cs1 [Masitinib] + CC1(C)CCC(c2ccc(Cl)cc2)=C(CN2CCN(c3ccc(C(=O)NS(=O)(=O)c4ccc(N[C@H](CCN5CCOCC5)CSc5ccccc5)c(S(=O)(=O)C(F)(F)F)c4)cc3)CC2)C1 [Navitoclax] (partner 0.5 µM)
In short: as §1

Row | Cell Line | relative viability ([1]; first compound 0.08 µM) | relative viability ([1]; first compound 0.253 µM) | relative viability ([1]; first compound 0.8 µM) | relative viability ([1]; first compound 2.53 µM) | relative viability ([1]; first compound 8 µM) | relative viability ([2]; first compound 0.01 µM) | relative viability ([2]; first compound 0.03162 µM) | relative viability ([2]; first compound 0.1 µM) | relative viability ([2]; first compound 0.3162 µM) | relative viability ([2]; first compound 1 µM) | relative viability ([3]; first compound 0.01 µM) | relative viability ([3]; first compound 0.03162 µM) | relative viability ([3]; first compound 0.1 µM) | relative viability ([3]; first compound 0.3162 µM) | relative viability ([3]; first compound 1 µM) | relative viability ([4]; first compound 0.01 µM) | relative viability ([4]; first compound 0.03162 µM) | relative viability ([4]; first compound 0.1 µM) | relative viability ([4]; first compound 0.3162 µM) | relative viability ([4]; first compound 1 µM)
1 | PC-14 | 0.527 | 0.58 | 0.497 | 0.526 | 0.555 | 0.918 | 0.904 | 1 | 0.976 | 0.999 | 0.57 | 0.323 | 0.636 | 0.57 | 0.621 | 1.05 | 0.89 | 0.991 | 1.04 | 0.937
2 | HCC-78 | – | 0.402 | 0.365 | 0.405 | 0.391 | 0.417 | 0.423 | 0.55 | 0.557 | 0.486 | 0.436 | 0.451 | 0.497 | 0.488 | 0.534 | 0.722 | 0.822 | 0.839 | 0.77 | 0.763
3 | NCI-H441 | 0.617 | 0.536 | 0.527 | 0.492 | 0.484 | 0.563 | 0.532 | 0.501 | 0.534 | 0.497 | 0.232 | 0.211 | 0.262 | 0.188 | 0.191 | 0.782 | 0.78 | 0.522 | 0.749 | 0.602
4 | NCI-H322M | 0.419 | 0.444 | 0.478 | 0.519 | 0.492 | 0.975 | 0.736 | 0.91 | 0.681 | 0.912 | 0.483 | 0.487 | 0.426 | 0.531 | 0.454 | 1.18 | 1.15 | 1.3 | 1.22 | 1.26
5 | LU99A | 0.247 | 0.265 | 0.297 | 0.257 | 0.28 | 0.511 | 0.53 | 0.512 | 0.719 | 0.505 | 0.431 | 0.417 | 0.419 | 0.428 | 0.418 | 0.755 | 0.758 | 0.887 | 0.97 | 0.791
6 | COR-L23 | 0.186 | 0.189 | 0.155 | 0.172 | 0.099 | 1.11 | 0.923 | 1 | 1.07 | 1.05 | 0.296 | 0.257 | 0.298 | 0.329 | 0.279 | 1.13 | 0.892 | 1.19 | 1.29 | 1.14
7 | NCI-H2126 | 0.77 | 0.756 | 0.798 | 0.686 | 0.737 | 0.707 | 0.656 | 0.785 | 0.691 | 0.659 | 0.33 | 0.341 | 0.376 | 0.337 | 0.379 | 0.761 | 0.807 | 0.842 | 0.823 | 0.798
8 | LC-2-ad | 0.448 | – | 0.398 | 0.371 | 0.384 | 0.876 | 0.83 | 0.791 | 0.855 | 0.833 | 0.494 | 0.474 | 0.544 | 0.47 | 0.503 | 0.486 | 0.412 | 0.667 | 0.485 | 0.408
9 | NCI-H1975 | 0.693 | 0.654 | 0.281 | 0.181 | 0.179 | 0.995 | 0.92 | 1.03 | 0.832 | 0.908 | 0.424 | 0.517 | 0.468 | 0.399 | 0.587 | 1.15 | 1.09 | 1.14 | 0.92 | 1.01
10 | NCI-H1944 | 0.291 | 0.24 | 0.226 | 0.203 | 0.178 | – | 1.14 | 0.794 | 1.12 | 1.17 | – | 0.295 | – | 0.312 | 0.307 | – | 1.02 | 0.799 | 1 | 0.995
11 | NCI-H2085 | 0.748 | 0.744 | 0.652 | 0.467 | 0.421 | 0.787 | 0.914 | 0.955 | 1.01 | 0.726 | 0.432 | 0.493 | 0.486 | 0.491 | 0.459 | 1.1 | 1.23 | 1.33 | 1.16 | 1.03
12 | COR-L 105 | 0.348 | 0.296 | 0.282 | 0.381 | 0.372 | 0.993 | 0.973 | 0.921 | 0.753 | 0.881 | 0.422 | 0.394 | 0.435 | 0.382 | 0.348 | 0.747 | 0.688 | 0.781 | 0.926 | 0.774
13 | SK-LU-1 | 0.301 | 0.293 | – | 0.32 | 0.302 | 1.06 | 1.22 | 1.26 | 1.43 | 1.25 | 0.431 | 0.362 | 0.373 | 0.405 | 0.416 | 0.927 | 1.05 | 1.04 | 1 | 0.869
14 | PC-3 [JPC-3] | 0.837 | 0.803 | 0.789 | 0.771 | 0.61 | 0.969 | 1 | 0.951 | 0.961 | 0.964 | 0.438 | 0.498 | 0.553 | 0.526 | 0.466 | 0.768 | 0.682 | 0.806 | 0.659 | 0.787
15 | NCI-H2087 | 0.197 | 0.229 | 0.245 | 0.19 | 0.216 | 0.936 | 0.951 | 0.923 | 1.01 | 0.884 | 0.211 | 0.221 | 0.234 | 0.198 | 0.237 | 0.966 | 1.02 | 1.1 | 1.08 | 0.963
16 | NCI-H1755 | 0.539 | 0.608 | 0.47 | 0.539 | 0.394 | – | 0.976 | 1 | 1.02 | 0.955 | 0.428 | 0.474 | 0.448 | 0.491 | 0.402 | – | 0.975 | 1.1 | 0.931 | 0.894
